Data: US8906351B2, “2,2′-furoin derivatives and use thereof to light skin” (Merck Patent GmbH, priority 2010, dated 2014)

Key:
[1] = tested on: B16V mouse melanoma cells; experiment: B16V mouse melanoma cell test, melanin content after alpha-MSH stimulation; format: cell-based; settings: DMSO blank = 100, DMSO + alpha-MSH = 235
Method: B16V mouse melanoma cells (manufacturer: DSMZ; Article No.: ACC370) are transferred into RPMI medium (Invitrogen, Article No.: 31870), to which 10% of FBS (foetal bovine serum; Invitrogen, Article No.: 10499044), 2 mM L-glutamine (Invitrogen, Article No: 25030) and 1 mM sodium pyruvate (Invitrogen, Article No.: 11360) had additionally been added, and incubated at 37° C. and 5% CO2 for 72 h. The medium is separated off, and the cells are washed once with 10 ml of DPBS (Dulbecco's phosphate-buffered salines; Invitrogen, Article No.: 14190), and the medium is subsequently removed by suction. 1 ml of HyQtase cell detachment solution (Hyclone, Article No.: SV30030.01) is added to the cells. The bottle is swirled a number of times, and the HyQtase cell detachment solution is subsequently removed by suction. The cells are then incubated in the incubator at 37° C. and 5% CO2 for 5 min. The cells are taken up in the modified RPMI medium (see above), and the cell count is determined. To this end, the cells are stained with Trypan Blue and counted in a Neubauer counting chamber. The cells are subsequently sown out again in the modified RPMI medium (see above) in a defined cell count of 80,000 cells per well (6-well clear plate, TCT, PS (Nunc)).
The cells are incubated at 37° C. and 5% CO2 for 24 h, the medium is then removed. 1980 μl of the substance dilution are subsequently added. […]
After the final incubation period, the medium is removed by suction, and the cells are washed with 1000 μl of DPBS (Invitrogen, Article No.: 14190). […] The cell count is subsequently determined. To this end, the cells are stained with Trypan Blue and counted in a Neubauer counting chamber. […] Four times 200 μl per cup (as quadruple determination) are subsequently pipetted into a 96-well plate (VWR, Article No.: 4100636981), and the absorption at a wavelength of 405 nm is determined (Safire, Tecan). The content of melanin can be determined in this way by means of a calibration line.

[2] = tested on: normal human epidermal melanocytes (NHEM); experiment: Melanogenesis assay with human primary cells; format: cell-based; settings: 10 days incubation, DMSO control = 100, concentration not given
Method: An ampoule of normal human epidermal melanocytes (NHEM, Promocell) is thawed and divided into further bottles depending on the number of their duplicates. After 2 to 3 weeks, between 750,000 and one million cells are transferred into T25 bottles with 5 ml of full medium. After 24 hours, the medium is removed and replaced by corresponding substance dilutions or controls. The overall duration of the incubation of the various test substances on the cells is 10 days. During these 10 days, the substance dilutions or controls are replaced every 2-3 days. After 10 days, the melanocytes are harvested. 500 μl of trypsin/EDTA is added to the cells and immediately removed again by suction. The cells are subsequently taken up in medium, counted and centrifuged off. The supernatant is removed, the pellet is washed with DPBS and centrifuged again. A photo of this pellet is taken. The pellet is then taken up in 1 ml of NaOH (1 M) and incubated in a shaker at 80° C. for one hour. The solution, cooled to room temperature, is pipetted into a 96-well plate (4×200 μl), and the absorption at 405 nm is measured. The values measured are subsequently plotted in percent against the control.

Structure (SMILES)	Relative melanin content in % ([1]; 1 mM + alpha-MSH (10^-8 M))	Relative melanin content in % ([1]; 0.05 mM + alpha-MSH (10^-8 M))	Relative melanin content in % ([1]; 0.1 mM + alpha-MSH (10^-8 M))	Relative melanin content in % [2]
O=c1cc(CO)occ1O [Kojic acid, reference compound]	96%			
O=C(c1ccco1)C(O)c1ccco1 (stereo not shown) [2,2′-Furoin, 2,2′-furoin]		88.0%	63.1%	72.9%
